Source: patent publication US5508311A, “Aliphatic propargylamines as selective MAO-B inhibitors and as neuroprotective agents” (University of Saskatchewan, priority 1993, dated 1996)
pIC50: −log10 of the molar value. Counter-ions that a name gives are not always drawn. Like-named read-outs stand apart in the source and are kept apart here.

How the values were obtained:
[1] = mouse, in vivo
Text: The acute toxicity of these compounds is quite low. […]. The aliphatic side-chains of these aliphatic propargyl compounds are similar to those that exist in endogenous lipids and fatty acids and such aliphatic chains are readily oxidized in vivo. […]

dopamine neurons [2] = conditions: animal study (Tatton); cited from earlier work
Parkinson's disease = conditions: Deprenyl alone; cited from earlier work
[3] = reported; cited from earlier work
MAO-A [4] = molecular target: T1, MAO-A (Mus musculus, UniProt Q64133); assay: in vivo; conditions: ip, read-out: 5-HT ID50
T1 construct: MAO activities in the mouse brain after; from tissue
T1 sequence (Q64133 1-526): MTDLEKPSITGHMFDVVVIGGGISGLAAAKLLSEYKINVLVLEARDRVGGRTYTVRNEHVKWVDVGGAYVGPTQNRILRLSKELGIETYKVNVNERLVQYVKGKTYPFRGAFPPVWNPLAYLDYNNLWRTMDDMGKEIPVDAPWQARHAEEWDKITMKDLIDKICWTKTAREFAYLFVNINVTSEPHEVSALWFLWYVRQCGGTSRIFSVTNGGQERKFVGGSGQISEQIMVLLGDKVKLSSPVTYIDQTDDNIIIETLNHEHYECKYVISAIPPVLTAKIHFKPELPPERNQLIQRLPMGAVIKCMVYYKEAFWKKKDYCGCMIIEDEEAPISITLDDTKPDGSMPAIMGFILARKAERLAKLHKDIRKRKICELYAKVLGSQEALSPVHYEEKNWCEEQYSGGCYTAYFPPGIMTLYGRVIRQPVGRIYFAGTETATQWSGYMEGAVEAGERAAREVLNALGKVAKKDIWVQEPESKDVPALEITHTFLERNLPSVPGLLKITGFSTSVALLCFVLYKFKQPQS
Method: (§1) Albino Swiss mice were used in this study. The animals were injected intraperitoneally with different doses of the aliphatic propargylamines in 100 μL saline.
(§2) 0.5, 1, 2, 5, 10, 20, 50, 100 mg/Kg. Striata were dissected from the brai
(§3) two hours after i.p. administration of the drugs. MAOA and MAOB activitie
(§4) were determined immediately. The values were estimated from doseresponse

monoamine oxidase = assay: Inhibition of rat liver monoamine oxidase deamination of dopamine (DA, mixed-type MAO A and B substrate) in vitro; format: biochemical; conditions: substrate DA (5 × 10^-4 M), average of at least 3 independent experiments
Method: (§5) The aliphatic propargylamine inhibitors (from 1×10^-10 M to 1×10^-4 M) were preincubated with the MAO for 20 min. at ambient room temperature and then the residual enzyme activities were determined by addition of the substrates, followed by further incubation at 37° C. for 30 min. The enzymatic reactions were terminated by the addition of citric acid and the aldehyde products were extracted with toluene: ethyl acetate (1:1, v/v) and the radio-activities assessed in a scintillation counter.

MAO-B [5] = molecular target: T2, MAO-B (Rattus norvegicus, UniProt P19643); assay: biochemical; format: biochemical; conditions: for pIC50: read-out: PE IC50
T2 sequence (P19643 1-520): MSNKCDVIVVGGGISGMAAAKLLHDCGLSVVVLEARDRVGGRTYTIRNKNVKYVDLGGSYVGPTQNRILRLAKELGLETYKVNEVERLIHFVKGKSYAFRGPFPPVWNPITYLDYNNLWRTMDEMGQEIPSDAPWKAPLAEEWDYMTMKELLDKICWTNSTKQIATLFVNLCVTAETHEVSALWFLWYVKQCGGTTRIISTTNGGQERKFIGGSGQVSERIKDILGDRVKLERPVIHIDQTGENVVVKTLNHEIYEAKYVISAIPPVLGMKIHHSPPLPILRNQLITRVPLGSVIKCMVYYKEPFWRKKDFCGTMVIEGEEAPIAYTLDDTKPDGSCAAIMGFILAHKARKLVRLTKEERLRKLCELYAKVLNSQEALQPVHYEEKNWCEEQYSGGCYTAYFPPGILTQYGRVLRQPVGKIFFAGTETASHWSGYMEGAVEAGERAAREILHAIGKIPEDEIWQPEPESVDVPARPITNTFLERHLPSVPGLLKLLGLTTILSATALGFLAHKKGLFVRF
Method: as §5

MAO-A [6] = molecular target: T3, MAO-A (Rattus norvegicus, UniProt P21396); assay: biochemical; format: biochemical; conditions: substrate 5-HT (5 × 10^-4 M); rat liver MAO, in vitro; average of at least 3 independent experiments
T3 sequence (P21396 1-526): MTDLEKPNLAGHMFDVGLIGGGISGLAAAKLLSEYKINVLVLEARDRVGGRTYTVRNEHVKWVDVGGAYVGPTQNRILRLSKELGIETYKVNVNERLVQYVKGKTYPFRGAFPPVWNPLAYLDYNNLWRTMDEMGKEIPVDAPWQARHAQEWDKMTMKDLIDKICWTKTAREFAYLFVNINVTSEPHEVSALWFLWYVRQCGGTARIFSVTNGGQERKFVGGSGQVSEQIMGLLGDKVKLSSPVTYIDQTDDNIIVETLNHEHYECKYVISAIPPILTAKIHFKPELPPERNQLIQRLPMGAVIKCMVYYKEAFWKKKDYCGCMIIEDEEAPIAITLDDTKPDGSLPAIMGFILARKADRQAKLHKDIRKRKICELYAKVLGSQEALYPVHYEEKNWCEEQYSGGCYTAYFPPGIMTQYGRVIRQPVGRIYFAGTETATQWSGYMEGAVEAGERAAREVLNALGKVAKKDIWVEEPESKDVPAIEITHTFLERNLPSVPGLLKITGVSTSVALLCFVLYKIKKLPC
Method: as §5

MAO-B [7] = molecular target: T4, MAO-B (Mus musculus, UniProt Q8BW75); assay: MAO-B activity in the mouse brain after oral administration (substrate PE); format: in vivo; conditions: 2 hours; for ED50: mouse, oral, average of 5 animals per dose, estimated from dose response curves, read-out: Inhibition of MAO-B activity, dose response (ID50); for Relative activity PE: oral 10 mg/Kg, PE (1.9 × 10^-5 M), mean ± standard error, saline = 100
T4 construct: MAO activities in the mouse brain after; from tissue
T4 sequence (Q8BW75 1-520): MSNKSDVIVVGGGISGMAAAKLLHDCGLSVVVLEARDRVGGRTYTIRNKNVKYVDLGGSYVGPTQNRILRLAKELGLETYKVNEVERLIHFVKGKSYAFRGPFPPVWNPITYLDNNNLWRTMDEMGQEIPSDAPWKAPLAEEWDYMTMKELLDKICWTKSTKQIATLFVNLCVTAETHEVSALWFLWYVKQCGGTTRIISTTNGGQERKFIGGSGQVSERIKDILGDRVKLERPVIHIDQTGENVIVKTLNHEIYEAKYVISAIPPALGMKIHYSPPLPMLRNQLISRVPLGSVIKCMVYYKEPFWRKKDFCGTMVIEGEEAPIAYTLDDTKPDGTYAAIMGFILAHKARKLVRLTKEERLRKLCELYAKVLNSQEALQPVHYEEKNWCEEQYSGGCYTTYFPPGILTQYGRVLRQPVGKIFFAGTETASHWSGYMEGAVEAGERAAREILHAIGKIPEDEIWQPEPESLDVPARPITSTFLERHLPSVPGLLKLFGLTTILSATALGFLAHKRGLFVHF
Method: (§6) Table 3 indicates the MAO activities in the mouse brain following oral administration of the aliphatic propargylamines.
(§7) of each compound. Striata were dissected from the brain two hours after
(§8) the administration of the drugs. MAOA and MAOB activities were determined
Striata were dissected from the brain two
hours after oral administration of the drugs. MAOB activities were then
determined immediately. The values were estimated from doseresponse

MAO-A [8] = molecular target: T1, MAO-A; format: in vivo
Method: as §6, §7, §8

MAO-B [9] = molecular target: T4, MAO-B; assay: in vivo; format: in vivo; conditions: for ED50: read-out: PE ID50; for Ratio MAO-A/MAO-B: 120 min
Method: as §1, §2, §3, §4

noradrenaline neurons = assay: Protection of noradrenaline neurons against DSP-4 induced neurotoxicity in the mouse brain; format: in vivo; conditions: Experiment II, pretreatment 10 mg/Kg i.p., mean ± S.E.
Method: The analyses of DSP-4-induced neurotoxic effects were conducted in accordance with […] and Jonsson (Eur. J. Pharmacol. 103 (1984), 269-278), hereby incorporated by reference. Mice were pretreated with M-2-PP (10 mg/Kg) and 2-HxMP (10 mg/Kg) or saline as control via i.p. administration and one hour later challenged with a single i.p. dose of DSP-4 (DSP-4: […] One week after treatment noradrenaline content in the putamen of these mice was analyzed. The results which are shown in Table 5 are mean ± S.E. of five animals in each group.

dopamine neurons [10] = assay: Protection of dopamine neurons against MPTP-induced neurotoxicity in the mice brain; format: in vivo, mouse
Text: Three days later, dopamine levels and dopamine uptake site densities (GBR bindings) were estimated.

[11] = human, in vivo; cited from earlier work
Solubility in water = conditions: free base
[12] = ID50 i.p. in mice versus IC50 in vitro
[13] = mouse, ip, 2 hours after administration, […], estimated from dose response curves
[14] = 2 hours after administration, 5-HT 5 × 10^-4 M, estimated from dose response curves

C#CCN(C)C(C)CC.Cl.O=C(O)C(=O)O (racemic) [Example 2-BuMP, N-(2-Butyl)-N-methylpropargylamine hydrochloride and oxalate]
fatality after oral administration [1]: no fatality

C#CCN(C)[C@H](C)Cc1ccccc1 [Deprenyl]
protection of dopamine neurons after MPTP washed out (dopamine neurons [2]): shown to protect dopamine neurons even after the MPTP has been completely washed out of the tissues
onset of disability in early, otherwise untreated Parkinson's disease (Parkinson's disease): can significantly delay the onset of disability
LD50 [3]: 445 mg/kg
ED50 (MAO-A [4]; 2 h): 25 mg/kg
pIC50 (monoamine oxidase): 6.52

C#CCN(C)CCCC.Cl [Example 1-BuMP, N-(1-Butyl)-N-methylpropargylamine hydrochloride]
Ratio MAO-A/MAO-B (MAO-B [5]; ratio of IC50 values, in vitro): 100
pIC50 (MAO-B [5]): 6.00
pIC50 (MAO-A [6]): 4.00
ED50 (MAO-B [7]): 15 mg/kg
Relative activity PE (MAO-B [7]): 67 ± 9%
Relative activity 5-HT (MAO-A [8]; oral 10 mg/Kg, 2 hours, 5-HT (5 × 10^-4 M), mean ± standard error, saline = 100): 98 ± 5%
MAO-B ID50 (mg/Kg) / IC50 ([…] × 10^-6 M) (MAO-B [9]; [12]): 2 (mg/Kg)/(1 × 10^-6 M)
inhibition of brain MAO-B activity in vivo (in words) (MAO-B [9]; mouse, i.p., two hours after treatment): more potent than the longer chain analogs at inhibiting brain MAO-B activity
ED50 (MAO-B [9]; [13]): 2 mg/kg
Ratio MAO-A/MAO-B (MAO-B [9]; ratio of ID50 values, i.p.): 50
fatality after oral administration [1]: no fatality
ED50 (MAO-A [4]; [14]): 100 mg/kg

C#CCN(C)C(C)CCCC.Cl (stereo not drawn) [Example 2-HxMP, N-(2-Hexyl)-N-methylpropargylamine hydrochloride]
Ratio MAO-A/MAO-B (MAO-B [5]; ratio of IC50 values, in vitro): 1000
pIC50 (MAO-B [5]): 7.00
pIC50 (MAO-A [6]): 4.00
Noradrenaline in putamen (noradrenaline neurons; DSP-4 50 mg/Kg, p < 0.01 vs DSP-4 (DSP-4 alone 56)): 84 ± 0.04%
Noradrenaline in putamen (noradrenaline neurons; saline, no DSP-4): 104 ± 0.05%
ED50 (MAO-B [7]): 1 mg/kg
MAO-B ID50 (mg/Kg) / IC50 ([…] × 10^-6 M) (MAO-B [9]; [12]): 2 (mg/Kg)/(1 × 10^-6 M)
ED50 (MAO-B [9]; [13]): 0.2 mg/kg
Ratio MAO-A/MAO-B (MAO-B [9]; ratio of ID50 values, i.p.): 200
ED50 (MAO-A [4]; [14]): 40 mg/kg

C#CCN(C)CCCCC.O=C(O)C(=O)O [Example M-1-PP, N-(1-Pentyl)-N-methylpropargylamine oxalate]
Ratio MAO-A/MAO-B (MAO-B [5]; rat, liver mitochondrial membranes): 200
pIC50 (MAO-B [5]): 6.40
pIC50 (MAO-A [6]): 4.00
Relative activity PE (MAO-B [7]): 72 ± 17%
Relative activity 5-HT (MAO-A [8]; mouse, in vivo, po, 10 mg/kg): 97 ± 13
MAO-B ID50 (mg/Kg) / IC50 ([…] × 10^-6 M) (MAO-B [9]; mouse, in vivo, ip): 6.6
inhibition of brain MAO-B activity in vivo (in words) (MAO-B [9]; mouse, in vivo, ip): more potent than the longer chain analogs at inhibiting brain MAO-B activity
Ratio MAO-A/MAO-B (MAO-B [9]; mouse, in vivo, ip): 50
ED50 (MAO-B [9]; mouse, ip, 2 h): 2 mg/kg
Dopamine (dopamine neurons [10]; 2.0 mg/Kg + MPTP): 3.1 μg/gm
Dopamine binding site (dopamine neurons [10]; 2.0 mg/Kg + MPTP): 221 pmol/mg
Dopamine (dopamine neurons [10]; 10 mg/Kg + MPTP): 9.0 μg/gm
Dopamine binding site (dopamine neurons [10]; 10 mg/Kg + MPTP): 320 pmol/mg
fatality after oral administration [1]: no fatality
ED50 (MAO-A [4]; 2 h): 100 mg/kg

CC(C)NNC(=O)c1ccncc1 [Iproniazid]
adverse effects leading to withdrawal [11]: hepatic toxicity and occasional hypertensive crises

C#CCNC [MP, N-Methylpropargylamine-HCl]
PE IC50 (MAO-B [5]): inactive
5-HT IC50 (MAO-A [6]): inactive
solubility in water (Solubility in water): infinite
DA IC50 (monoamine oxidase): inactive
